In US11130769B2 (Prelude Therapeutics Incorporated, priority 2018, dated 2021):

Assays:
MCL-1 = MCL-1 (Homo sapiens (Human), UniProt Q07820); test: Cell free Mcl-1:Bim affinity assay (fluorescence polarization competition); type: binding; details: 15 nM MCL-1, 5 nM FITC-Bim, 1 hour at room temperature; class symbols; read-out: BIM_Ki
How it was run: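 Compounds competed with FITC-labelled Bim peptide (5 nM) for MCL-1 (15 nM) in HEPES/NaCl buffer with 1% DMSO, 1 h at room temperature. Fluorescence polarization (535 nm emission) gave % inhibition versus DMSO and positive controls; IC50 from 10-point curves, converted to Ki by the Nikolovska-Coleska equation.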

H929 cells = test: Cell viability assay (H929 10 FBS); type: cell-based; details: Homo sapiens, NCI-H929, 24 hours, read-out: H929_10FBS IC50
How it was run: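 H929 cells, 4000/well, in RPMI 1640 with 10% FBS, sodium pyruvate, HEPES and glucose were exposed to compound 24 h at 37 °C. Viability read as luminescence after 30-60 min at RT with CellTiter-Glo or ATPlite 1 Step.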

MCL-1, sequence (Q07820 whole entry): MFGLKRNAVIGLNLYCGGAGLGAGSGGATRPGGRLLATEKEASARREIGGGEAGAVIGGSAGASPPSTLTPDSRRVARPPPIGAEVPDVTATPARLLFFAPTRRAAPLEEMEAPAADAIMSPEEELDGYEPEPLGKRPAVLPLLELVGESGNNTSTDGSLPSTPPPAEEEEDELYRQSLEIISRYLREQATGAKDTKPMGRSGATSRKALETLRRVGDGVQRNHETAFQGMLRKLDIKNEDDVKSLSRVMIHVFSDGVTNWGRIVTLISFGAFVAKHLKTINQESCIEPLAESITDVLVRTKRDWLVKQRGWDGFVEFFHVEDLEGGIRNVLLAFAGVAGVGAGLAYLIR

Row | Structure (SMILES) | Ki (MCL-1) | IC50 (H929 cells)
1 | CO[C@@H]1/C=C/CN(C)C2(CCC2)C(=O)NS(=O)(=O)c2ccc3c(c2)N(C[C@@H]2CC[C@H]21)C[C@@]1(CCCc2cc(Cl)ccc21)CO3 [Example 120, (3R,6R,7R,8E,22S)-6′-Chloro-7-methoxy-11-methyl-12,12-(1,3-propylene)-15,15-dioxo-spiro[20-oxa-15-thia-1,11,14-triazatetracyclo[14.7.2.03,6.019,24]pentacosa[8,16(25),17,19(24)]tetraene-22,1′-tetralin]-13-one] | 0.001 to 0.1 µM | < 1 µM
2 | COC[C@@H]1OC/C=C/[C@@H](OC)[C@@H]2CC[C@H]2CN2C[C@@]3(CCCc4cc(Cl)ccc43)COc3ccc(cc32)S(=O)(=O)NC1=O [Example 125, (3R,6R,7R,8E,12S,22S)-6′-Chloro-7-methoxy-12-(methoxymethyl)-15,15-dioxo-spiro[11,20-dioxa-15-thia-1,14-diazatetracyclo[14.7.2.03,6.019,24]pentacosa-8,16(25),17,19(24)-tetraene-22,1′-tetralin]-13-one] | < 0.001 µM | > 1 µM
3 | CO[C@@H]1/C=C/CN[C@@H](C2CC2)C(=O)NS(=O)(=O)c2ccc3c(c2)N(C[C@@H]2CC[C@H]21)C[C@@]1(CCCc2cc(Cl)ccc21)CO3 [Example 126, (3R,6R,7R,8E,12S,22S)-6′-Chloro-7-methoxy-12-cyclopropyl-15,15-dioxo-spiro[20-oxa-15-thia-1,11,14-triazatetracyclo[14.7.2.03,6.019,24]pentacosa-8,16,18,24-tetraene-22,1′-tetralin]-13-one] | 0.001 to 0.1 µM | > 1 µM
4 | CO[C@@H]1/C=C/CN[C@@H](C(C)C)C(=O)NS(=O)(=O)c2ccc3c(c2)N(C[C@@H]2CC[C@H]21)C[C@@]1(CCCc2cc(Cl)ccc21)CO3 [Example 128, (3R,6R,7R,8E,12S,22S)-6′-Chloro-7-methoxy-12-isopropyl-15,15-dioxo-spiro[20-oxa-15-thia-1,11,14-triazatetracyclo[14.7.2.03,6.019,24]pentacosa-8,16,18,24-tetraene-22,1′-tetralin]-13-one] | 0.001 to 0.1 µM | > 1 µM
5 | CO[C@@H]1/C=C\CNC(=O)NS(=O)(=O)c2ccc3c(c2)N(C[C@@H]2CC[C@H]21)C[C@@]1(CCCc2cc(Cl)ccc21)CO3 [Example 130, (3R,6R,7R,8Z,21S)-6′-Chloro-7-methoxy-14,14-dioxo-spiro[19-oxa-14-thia-1,11,13-triazatetracyclo[13.7.2.03,6.018,23]tetracosa-8,15,17,23-tetraene-21,1′-tetralin]-12-one] | 0.001 to 0.1 µM | > 1 µM
6 | CO[C@@H]1/C=C/CNC(=O)NS(=O)(=O)c2ccc3c(c2)N(C[C@@H]2CC[C@H]21)C[C@@]1(CCCc2cc(Cl)ccc21)CO3 [Example 131, (3R,6R,7R,8E,21S)-6′-chloro-7-methoxy-14,14-dioxo-spiro[19-oxa-14-thia-1,11,13-triazatetracyclo[13.7.2.03,6.018,23]tetracosa-8,15,17,23-tetraene-21,1′-tetralin]-12-one] | 0.001 to 0.1 µM | > 1 µM
7 | CO[C@H]1/C=C/CNC(C)(C)C(=O)NS(=O)(=O)c2ccc3c(c2)N(C[C@@H]2CC[C@H]21)C[C@@]1(CCCc2cc(Cl)ccc21)CO3 [Example 136, (3R,6R,7S,8E,22S)-6′-Chloro-7-methoxy-12,12-dimethyl-15,15-dioxo-spiro[20-oxa-15-thia-1,11,14-triazatetracyclo[14.7.2.03,6.019,24]pentacosa-8,16,18,24-tetraene-22,1′-tetralin]-13-one] | 0.001 to 0.1 µM | > 1 µM
8 | CO[C@H]1/C=C/CN(C)C(C)(C)C(=O)NS(=O)(=O)c2ccc3c(c2)N(C[C@@H]2CC[C@H]21)C[C@@]1(CCCc2cc(Cl)ccc21)CO3 [Example 137, (3R,6R,7S,8E,22S)-6′-Chloro-7-methoxy-11,12,12-trimethyl-15,15-dioxo-spiro[20-oxa-15-thia-1,11,14-triazatetracyclo[14.7.2.03,6.019,24]pentacosa-8,16,18,24-tetraene-22,1′-tetralin]-13-one] | 0.001 to 0.1 µM | < 1 µM

More lines, now with the values ahead:

Row | Ki (MCL-1) | IC50 (H929 cells) | Structure (SMILES)
9 | 0.001 to 0.1 µM | > 1 µM | CO[C@@H]1/C=C/CN[C@H](C)C(=O)NS(=O)(=O)c2ccc3c(c2)N(C[C@@H]2CC[C@H]21)C[C@@]1(CCCc2cc(Cl)ccc21)CO3 [Example 121, (3R,6R,7R,8E,12R,22S)-6′-Chloro-7-methoxy-12-methyl-15,15-dioxo-spiro[20-oxa-15-thia-1,11,14-triazatetracyclo[14.7.2.03,6.019,24]pentacosa-8,16(25),17,19(24)-tetraene-22,1′-tetralin]-13-one]
10 | 0.001 to 0.1 µM | > 1 µM | CO[C@@H]1/C=C\CN[C@H](C)C(=O)NS(=O)(=O)c2ccc3c(c2)N(C[C@@H]2CC[C@H]21)C[C@@]1(CCCc2cc(Cl)ccc21)CO3 [Example 122, (3R,6R,7R,8Z,12R,22S)-6′-Chloro-7-methoxy-12-methyl-15,15-dioxo-spiro[20-oxa-15-thia-1,11,14-triazatetracyclo[14.7.2.03,6.019,24]pentacosa-8,16(25),17,19(24)-tetraene-22,1′-tetralin]-13-one]
11 | 0.001 to 0.1 µM | < 1 µM | CO[C@@H]1/C=C/CN(C)[C@H](C)C(=O)NS(=O)(=O)c2ccc3c(c2)N(C[C@@H]2CC[C@H]21)C[C@@]1(CCCc2cc(Cl)ccc21)CO3 [Example 123, (3R,6R,7R,8E,12R,22S)-6′-Chloro-7-methoxy-11,12-dimethyl-15,15-dioxo-spiro[20-oxa-15-thia-1,11,14-triazatetracyclo[14.7.2.03,6.019,24]pentacosa-8,16(25),17,19(24)-tetraene-22,1′-tetralin]-13-one]
12 | 0.001 to 0.1 µM | < 1 µM | CO[C@@H]1/C=C\CN(C)[C@H](C)C(=O)NS(=O)(=O)c2ccc3c(c2)N(C[C@@H]2CC[C@H]21)C[C@@]1(CCCc2cc(Cl)ccc21)CO3 [Example 124, (3R,6R,7R,8Z,12R,22S)-6′-Chloro-7-methoxy-11,12-dimethyl-15,15-dioxo-spiro[20-oxa-15-thia-1,11,14-triazatetracyclo[14.7.2.03,6.019,24]pentacosa-8,16(25),17,19(24)-tetraene-22,1′-tetralin]-13-one]
13 | 0.001 to 0.1 µM | < 1 µM | CO[C@@H]1/C=C/CN(C)[C@@H](C2CC2)C(=O)NS(=O)(=O)c2ccc3c(c2)N(C[C@@H]2CC[C@H]21)C[C@@]1(CCCc2cc(Cl)ccc21)CO3 [Example 127, (3R,6R,7R,8E,12S,22S)-6′-Chloro-12-cyclopropyl-7-methoxy-11-methyl-15,15-dioxo-spiro[20-oxa-15-thia-1,11,14-triazatetracyclo[14.7.2.0˜3,6.0˜19,24]pentacosa-8,16,18,24-tetraene-22,1′-tetralin]-13-one]
14 | 0.001 to 0.1 µM | > 1 µM | CO[C@@H]1/C=C/CN(C)[C@@H](C(C)C)C(=O)NS(=O)(=O)c2ccc3c(c2)N(C[C@@H]2CC[C@H]21)C[C@@]1(CCCc2cc(Cl)ccc21)CO3 [Example 129, (3R,6R,7R,8E,12S,22S)-6′-Chloro-7-methoxy-11-methyl-12-isopropyl-15,15-dioxo-spiro[20-oxa-15-thia-1,11,14-triazatetracyclo[14.7.2.03,6.019,24]pentacosa-8,16,18,24-tetraene-22,1′-tetralin]-13-one]
15 | 0.001 to 0.1 µM | < 0.5 µM | CCN1C/C=C/[C@@H](OC)[C@@H]2CC[C@H]2CN2C[C@@]3(CCCc4cc(Cl)ccc43)COc3ccc(cc32)S(=O)(=O)NC(=O)[C@H]1C [Example 132, (3R,6R,7R,8E,12R,22S)-6′-Chloro-7-methoxy-11-ethyl-12-methyl-15,15-dioxo-spiro[20-oxa-15-thia-1,11,14-triazatetracyclo[14.7.2.03,6.019,24]pentacosa-8,16(25),17,19(24)-tetraene-22,1′-tetralin]-13-one]
16 | 0.001 to 0.1 µM | > 1 µM | CO[C@@H]1/C=C/CN(C(C)=O)[C@H](C)C(=O)NS(=O)(=O)c2ccc3c(c2)N(C[C@@H]2CC[C@H]21)C[C@@]1(CCCc2cc(Cl)ccc21)CO3 [Example 133, (3R,6R,7R,8E,12R,22S)-6′-Chloro-7-methoxy-11-acetyl-12-methyl-15,15-dioxo-spiro[20-oxa-15-thia-1,11,14-triazatetracyclo[14.7.2.03,6.019,24]pentacosa-8,16(25),17,19(24)-tetraene-22,1′-tetralin]-13-one]
17 | 0.001 to 0.1 µM | > 1 µM | COC(=O)N1C/C=C/[C@@H](OC)[C@@H]2CC[C@H]2CN2C[C@@]3(CCCc4cc(Cl)ccc43)COc3ccc(cc32)S(=O)(=O)NC(=O)[C@H]1C [Example 134, Methyl (3R,6R,7R,8E,12R,22S)-6′-Chloro-7-methoxy-12-methyl-13,15,15-trioxo-spiro[20-oxa-15-thia-1,11,14-triazatetracyclo[14.7.2.03,6.019,24]pentacosa-8,16,18,24-tetraene-22,1′-tetralin]-11-carboxylate]
18 | 0.001 to 0.1 µM | > 1 µM | CO[C@@H]1/C=C/CN(S(C)(=O)=O)[C@H](C)C(=O)NS(=O)(=O)c2ccc3c(c2)N(C[C@@H]2CC[C@H]21)C[C@@]1(CCCc2cc(Cl)ccc21)CO3 [Example 135, (3R,6R,7R,8E,12R,22S)-6′-Chloro-7-methoxy-12-methyl-11-methylsulfonyl-15,15-dioxo-spiro[20-oxa-15-thia-1,11,14-triazatetracyclo[14.7.2.03,6.019,24]pentacosa-8,16,18,24-tetraene-22,1′-tetralin]-13-one]
